Consider 51 compounds from PubChem BioAssay AID1996.

In brackets after ≈: the same amount, converted by molar mass.

The conditions of this series: buffer; pH 7.4; 200.0 µM.
The kinetic solubility is solubility judged after dilution from a stock solution rather than from solid. Take `CC(=O)Nc1nc(C)c(Oc2ccc(C)cc2)c(=O)[nH]1`: the kinetic solubility worked out at 39.6 µg/mL (≈ 145 µM).

The compound `COc1ccc(C(=O)NC(=S)N2CCCC2)cc1` returned a kinetic solubility of over 39.7 µg/mL.

Regarding `COc1ccc(NC(=O)CNC(=O)c2ccco2)cc1`, the solubility (kinetic) came out at 40.5 µg/mL (≈ 148 µM).

Take `CCCC#CCN1CCN(C23CC4CC(CC(C4)C2)C3)CC1`: the solubility (kinetic) was 42.6 µg/mL (≈ 142 µM).

`CCOC(=O)C(O)(c1ccc(NC(=O)NC)cc1)C(F)(F)F` (stereo unspecified): the solubility (kinetic) was over 48 µg/mL.

For the compound `NC(=O)CN1C(=O)NC(c2ccccc2)(c2ccccc2)C1=O`, the kinetic solubility was over 46.4 µg/mL.

The compound `O=S(=O)(NC1CCCCC1)c1cccs1` came in with a kinetic solubility of 28.7 µg/mL (≈ 117 µM).

As to `CC(OC(=O)C1CCCCC1)C(=O)Nc1cccc(Cl)c1` (stereo unspecified), the kinetic solubility is 22.3 µg/mL (≈ 72 µM).

Compound `COc1ccccc1N(C)S(=O)(=O)c1ccc(C(=O)Nc2ccc(C(N)=O)cc2)cc1` had a solubility (kinetic) of 6.1 µg/mL (≈ 13.9 µM).

In the case of `COC(=O)C1CCN(C(=O)CN2C(=O)NC(CC(C)C)C2=O)CC1` (stereo unspecified), the solubility (kinetic) is over 50.9 µg/mL.

Regarding `CC(C)(C)c1ccc(-c2ncccc2O)cc1.Cl`, the kinetic solubility was 10.6 µg/mL.

In turn, `O=c1[nH]c2ccccc2c2oc(CCl)nc12` yielded a kinetic solubility of 12.5 µg/mL (≈ 53.3 µM).

As to `S=C(Nc1ccccc1)N1CCC(Cc2ccccc2)CC1`, the kinetic solubility came to 14.5 µg/mL (≈ 46.7 µM).

`O=C(Cc1ccccc1)NN1CCCCC1`: the solubility (kinetic) was over 32.7 µg/mL.

On to `CN(C)C(=O)c1c2c(nc3ccccc13)CCCC2`, for which the kinetic solubility is 32.2 µg/mL (≈ 127 µM).

Compound `O=C(CC(NC(=O)c1ccccc1)c1ccccc1)NCc1ccccc1` (stereo unspecified) displayed a kinetic solubility of 4.1 µg/mL (≈ 11.4 µM).

In turn, `O=C(NC1CCN(CCc2c[nH]c3ccccc23)CC1)c1ccccc1` registered a solubility (kinetic) of 51.7 µg/mL (≈ 149 µM).

Consider `CCN(CC)S(=O)(=O)c1ccc2[nH]c(=O)c3ccccc3c2c1`, for which the kinetic solubility was under 0.4 µg/mL.

In the case of `Cc1ccc(C)c(OCCNc2ccc([N+](=O)[O-])cn2)c1`, the kinetic solubility was 0.4 µg/mL (≈ 1.39 µM).

For `COc1ccc(CCN2C(=NC(=O)C(C)C)SC3CS(=O)(=O)CC32)cc1` (stereo unspecified), the solubility (kinetic) was 6.6 µg/mL (≈ 16.6 µM).

Regarding `CS(=O)(=O)c1ccc(C(=O)NC2CCCc3ccccc32)cc1` (stereo unspecified), the kinetic solubility came out at 35.2 µg/mL (≈ 107 µM).

`COc1ccc(OC)c(Nc2nc(-c3ccncc3)nc3ccccc23)c1` showed a kinetic solubility of under 0.2 µg/mL.

With `COC(=O)c1ccc(NC(=S)NN2CCOCC2)cc1`, the solubility (kinetic) was over 44.3 µg/mL.

Turning to `N#Cc1sc(C(N)=O)c(-c2ccccc2)c1-c1ccccc1`, the kinetic solubility was under 0.3 µg/mL.

As to `Cc1cc(NS(=O)(=O)c2ccc3c(c2)OCCO3)no1`, the solubility (kinetic) was 31.2 µg/mL (≈ 105 µM).

For the compound `Oc1ccc(-c2cnc3ccccc3n2)cc1`, the kinetic solubility stood at 26.9 µg/mL (≈ 121 µM).

The compound `CN(C)S(=O)(=O)N1CCC(CO)(CCc2ccccc2)CC1` registered a kinetic solubility of over 49 µg/mL.

Compound `CN(C)/C(=N\S(=O)(=O)c1ccc(Cl)cc1)c1ccc(F)cc1` gave a solubility (kinetic) of over 51.1 µg/mL.

Regarding `CCC(Oc1cccc(Cl)c1)C(=O)N1CCCN(C)CC1` (stereo unspecified), the solubility (kinetic) is over 46.6 µg/mL.

The compound `CN1CCN(C(=O)CNC(=O)C23CC4CC(CC(C4)C2)C3)CC1` gave a kinetic solubility of over 47.9 µg/mL.

`CC(=O)c1c(C)oc2ccc(NS(=O)(=O)c3ccc(C)cc3)cc12` returned a solubility (kinetic) of under 0.7 µg/mL.

`CC(=O)Nc1cccc(OCCCNS(=O)(=O)c2ccc(C#N)cc2)c1`: the solubility (kinetic) was over 56 µg/mL.

Compound `CCOc1ccc(Nc2cc(C)nc3ccc(C)cc23)cc1` registered a kinetic solubility of 40 µg/mL (≈ 137 µM).

`O=C(Cc1cccs1)NCc1ccc(Cl)cc1` yielded a solubility (kinetic) of 23.5 µg/mL (≈ 88.4 µM).

In turn, `OC(CNCC1COc2ccccc2O1)COc1ccccc1F` (stereo unspecified) had a kinetic solubility of over 50 µg/mL.

For the compound `Cc1cc(C)cc(OCC(=O)Nc2ccncc2)c1`, the solubility (kinetic) amounted to 36.7 µg/mL (≈ 143 µM).

`CN(c1ccc(OCC(=O)OCC(=O)Nc2ccc(OC(F)F)cc2)cc1)S(=O)(=O)c1cccs1` returned a solubility (kinetic) of 19.1 µg/mL (≈ 36.3 µM).

Consider `CCc1cc(C(=O)O)c(NC(=O)/C=C/c2ccc(OC)cc2)s1`, for which the kinetic solubility was over 49.7 µg/mL.

`CCCCNC1=NCCS1` displayed a kinetic solubility of over 23.7 µg/mL.

Regarding `c1ccc(SCc2nc3ccccc3s2)nc1`, the solubility (kinetic) stood at 17.8 µg/mL (≈ 68.9 µM).

In the case of `CCCN(CC1CC1)C(=S)Nc1ccc(C(C)=O)cc1`, the kinetic solubility was over 43.6 µg/mL.

As to `Cc1ccc(Nc2c([N+](=O)[O-])ccc3nonc23)c(C)c1`, the kinetic solubility is under 0.2 µg/mL.

Compound `CC1(C)CC(NC(=S)NCc2ccco2)CC(C)(C)N1` gave a solubility (kinetic) of over 44.3 µg/mL.

`COc1cc(C)c(CN2CC=C(c3ccc(F)cc3)CC2)cc1C` registered a solubility (kinetic) of 8.5 µg/mL (≈ 26.1 µM).

Compound `CCNC(=O)COc1ccc(OCc2ccccc2)cc1` returned a solubility (kinetic) of 29.1 µg/mL (≈ 102 µM).

For `O=S(=O)(Nc1ccccc1N1CCOCC1)c1c(F)cc(F)cc1Br`, the solubility (kinetic) was 2.3 µg/mL (≈ 5.31 µM).

Consider `Cc1cc(C)cc(NC(=O)CN2CCC(C(=O)c3ccccc3)CC2)c1`, for which the solubility (kinetic) was 16.5 µg/mL (≈ 47.1 µM).

Consider `O=C(NCCc1cccs1)C(c1ccccc1)c1ccccc1`, for which the solubility (kinetic) stood at 1.5 µg/mL (≈ 4.67 µM).

In the case of `CSc1cccc(NC(=S)N2CCC(N(C)C3CCCC3)CC2)c1`, the solubility (kinetic) was over 54.5 µg/mL.

Consider `FC(F)(F)c1ccc2c(c1)NCC1CCCN21` (stereo unspecified), for which the kinetic solubility was 13 µg/mL (≈ 53.7 µM).

As to `O=C(COC(=O)CCSc1ccccc1)Nc1ccccc1Br`, the kinetic solubility was 18.2 µg/mL (≈ 46.2 µM).
